The source of these data is publication PMC10925993, “6-Aryl-4-cycloamino-1,3,5-triazine-2-amines: synthesis, antileukemic activity, and 3D-QSAR modelling” (RSC Advances, 2024).

Assay [1] relates to Jurkat T cells. The assay can be described thus: AO/PI double fluorescence staining, cell morphology study. The class given is cell-based, human. The following applies: treatment at GI50 concentration, 24 h, 48 h, 72 h. The procedure: The GI50 value for this compound was selected as the treatment concentration. […] Moreover, some Jurkat T cells underwent late stages of apoptosis as shown by the reddish-orange stain (Fig. 4C). Similar events also occurred 48 h and 72 h after the treatment but with a lower number of viable cells (Fig. 4D and E).
Fluorescence microscopy was applied to portray apoptotic and necrotic changes in Jurkat T cells using AO/PI fluorescence staining.[23] The Jurkat T cells were cultured as described above. A total of 5 × 10^5 cells (based on the doubling time for the cell line) per 1 mL cell culture media were seeded into each well of a 6-well plate (Biologix, USA) and incubated for 24 h. […] The fluorescence dye containing AO (10 μg mL^−1, 16 μL) and PI (10 μg mL^−1, 13 μL) was prepared immediately prior to use. The treated cells, positive and negative controls containing dyes were examined immediately under an inverted UV-fluorescent microscope (Nikon Ti2-E, Japan) to prevent fluorescence dyes from fading. The images of viable cells and non-viable cells after treatment were taken by Nikon Ti2-E software. The observations were repeated in three independent experiments.

Assay [2] has as its system Jurkat T cells. The assay can be described thus: Inhibition of Jurkat T cell growth (GI50), MTS assay. The class given is cell-based. The following applies: Homo sapiens. The procedure: These compounds were selected for further testing to estimate their 50% growth inhibition (GI50) value. Standard antileukemic drugs mercaptopurine, methotrexate and cytarabine were chosen as positive controls.
An MTS (3-(4,5-dimethylthiazol-2-yl)-5-(3-carboxymethoxyphenyl)-2-(4-sulfophenyl)-2H-tetrazolium inner salt) assay[20] was used to assess the leukemic cell viability. Jurkat T cells (human leukemic T cell, clone E6-1) from American Type Culture Collection (ATCC) were cultured in RPMI-1640 medium (Nacalai Tesque, Japan) supplemented with 10% v/v fetal bovine serum (FBS) (Biosera, France). The cells were maintained at 37 °C in a humidified 5% CO2 incubator (Thermo Fisher, USA). A total of 2 × 10^3 cells per 100 μL cell culture media were seeded into each well of a 96-well plate and incubated for 24 h. Then, tested compounds or reference drugs [6-mercaptopurine (Merck Millipore, Germany), methotrexate (Merck Millipore, Germany) and cytarabine (Merck Millipore, Germany)] were added, followed by incubation for 72 h. After that, a mixture of MTS (Sigma Aldrich, USA) and phenazine methosulfate (PMS) (Nacalai Tesque, Japan) were added to each well, followed by another incubation for 1 h to 4 h at 37 °C. The absorbance in each well was measured at 490 nm using a microplate reader (Tecan NanoQuant Infinite M200 Pro, Austria). The percentage of cell viability was estimated by comparing absorbance in wells with the treated and untreated (vehicle control) cells using the following formula: ODtreated/ODuntreated × 100%. All experiments were performed in triplicate and repeated in three independent experiments. The GI50 values were calculated using sigmoidal concentration-response curves generated by the GraphPad Prism 8 program.[21]

The subject of assay [3] is Jurkat T cells. Description: Antiproliferative screening at 10 μM, MTS assay. To be noted: Homo sapiens; Jurkat T cells, 10 μM, 72 h after treatment, MTS; mean of three independent experiments; read-out: Cell viability (%). The class given is cell-based, human. The procedure, abridged:
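Jurkat cells at 2 × 10^3 per well were grown 24 h, then exposed to compound for 72 h. Viability came from MTS absorbance at 490 nm relative to vehicle-treated wells. GI50 was derived from sigmoidal concentration-response curves.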
A general note: Formazan colour is commonly taken as a measure of viable cells.

[4] abbreviates: concentration required to inhibit Jurkat T cell growth by 50%, 72 h, MTS, mean of three independent experiments, read-out: GI50 ± SEM.

Entries after “also recorded” stand apart in the source; their conditions may differ. Like-named read-outs stand apart in the source and are kept apart here.

Turning to `CN(Cc1cnc2nc(N)nc(N)c2n1)c1ccc(C(=O)N[C@@H](CCC(=O)O)C(=O)O)cc1` [Methotrexate, methotrexate, reference compound], the “Jurkat T cell morphology, type of cell death (AO/PI staining)” value in the assay with Jurkat T cells [1] is reported as “induced the late apoptotic morphological changes”. Moreover, the GI50 with Jurkat T cells [2] (setting [4]) turned out to be 370 ± 30 nM.
Take `Nc1nc(-c2cccc(F)c2)nc(N2CCc3ccccc3C2)n1` [Compound 9{6,2}, 6-(3-Fluorophenyl)-4-(3,4-dihydroisoquinolin-2(1H)-yl)-1,3,5-triazine-2-amine]: in the assay on Jurkat T cells [3], the viability at 10 µM turned out to be 1%. In the assay on Jurkat T cells [1], the “Jurkat T cell morphology, type of cell death (AO/PI staining)” value is on record as “necrotic type of cell death; also recorded: probably involved aponecrosis; also recorded: triggered the aponecrosis”. In addition, the GI50 with Jurkat T cells [2] (GI50 against Jurkat T cells converted to negative logarithmic scale, read-out: Experimental pGI50 (converted)) is 1020 nM; in the assay on Jurkat T cells [2] (setting [4]) it was 1020 ± 300 nM.

The viability is a per cent measure of how many cells are alive, often set against a control.
